ChEMBL document CHEMBL3871305, “Imidazopyridyl compounds as aldosterone synthase inhibitors” (Bioorg Med Chem Lett, 2017)

Assays:
[1] = in vitro; conditions: rat, liver microsomes
[2] = in vitro; conditions: rhesus monkey, liver microsomes
[3] = in vitro; conditions: human, liver microsomes
[4] = Half life in Wistar Han rat at 1 mg/kg, iv or 2 mg/kg, po; assay type: ADME, organism-based; conditions: in vivo
[5] = Plasma clearance in Wistar Han rat at 1 mg/kg, iv or 2 mg/kg, po; assay type: ADME, organism-based
[6] = Oral bioavailability in Wistar Han rat at 2 mg/kg; assay type: ADME, organism-based; conditions: in vivo
[7] = Dose normalized AUC in Wistar Han rat at 2 mg/kg, po; assay type: ADME, organism-based; conditions: in vivo
[8] = MRT in Wistar Han rat at 1 mg/kg, iv or 2 mg/kg, po; assay type: ADME, organism-based; conditions: in vivo
[9] = Volume of distribution at steady state in Wistar Han rat at 1 mg/kg, iv or 2 mg/kg, po; assay type: ADME, organism-based; conditions: in vivo, read-out: Vdss
[10] = Cmax in Wistar Han rat at 1 mg/kg, iv or 2 mg/kg, po; assay type: ADME, organism-based; conditions: in vivo

SMILES | remaining at 0.5 h, 1 µM [1] | remaining at 0.5 h, 1 µM [2] | remaining at 0.5 h, 1 µM [3] | half-life [4] | clearance [5] | bioavailability [6] | AUC/dose [7] | MRT [8] | Vd [9] | Cmax [10]
Fc1cncc(-c2nc3ccc(F)cn3c2C2CC2)c1 | 70% | 29% | 93% |  |  |  |  |  |  | 
CCc1c(F)cncc1-c1nc2ccc(F)cn2c1C1CC1 | 2% | 0% | 37% |  |  |  |  |  |  | 
C[C@](O)(c1cncc(-c2nc3ccc(F)cn3c2C2CC2)c1)C(F)(F)F | 38% | 31% | 88% | 36.6 min | 23 mL/min/kg | 47% | 0.92 µM·kg·h/mg | 34.8 min | 0.82 L/kg | 700 nM
C[C@@](O)(c1cncc(-c2nc3ccc(F)cn3c2C2CC2)c1)C(F)(F)F | 33% | 31% | 96% |  |  |  |  |  |  | 
Fc1cncc(-c2nc3cc(F)c(Cl)cn3c2C2CC2)c1 | 80% | 87% | 93% |  |  |  |  |  |  | 
